US20250263408A1 (Uniquest Pty Ltd, priority 2022, published 2025)
pEC50: −log10 of the molar value.

Key:
[1] = system: Ba/F3-WT (wild type) cells; experiment: Ba/F3 Proliferation Assay, Ba/F3-WT (wild type) cells with mIL-3 (Resazurin); assay type: cell-based; conditions: Ba/F3-WT cells +mIL-3, 48-hour incubation
Protocol: (§1) Ba/F3-Syk and Ba/F3-WT (wild type) cells were maintained at ≤1×10^6 cell/mL in RPMI (Life Technologies) with 10% FBS at 37° C. and 5% CO2 for a maximum of four weeks. Ba/F3-WT additionally contained 2 ng/mL mIL-3 (R&D Systems) to induce cellular growth. Cells were counted and dispensed at 5000 cells/well using a Multidrop Liquid Dispenser in a volume of 45 μL into black 384-well TC treated plates (Greiner) and incubated for four hours in complete media (+mIL-3 for Ba/F3-WT). Compounds were serially diluted in 100% DMSO, prior to an intermediate dilution in RPMI media. 5 μL of compound (0.4% final DMSO) was added to the cells, followed by a 48-hour incubation period. 5 μL of Resazurin (60 μM final) was then added and cells were incubated at 37° C. for three hours, before fluorescence (λex530/λem585) was measured using an Ensight Multimode Plate Reader (Perkin Elmer).

Ba/F3-Syk cells = target: T1, Ba/F3-Syk cells (Homo sapiens, UniProt P43405); experiment: Ba/F3 Proliferation Assay, Ba/F3-Syk cells (Resazurin); assay type: cell-based; conditions: 48-hour incubation
T1 construct: fused on or other part: Possible but unprinted fusion partner: TEL (ETV6), the usual partner for Ba/F3 lines transformed by Syk; Nothing on a partner is printed
Protocol: as §1

Compound	pEC50 ([1]; Mus musculus, BaF3, 48 h)	pEC50 (Ba/F3-Syk cells)	pEC50 [1]
COCCn1ccc(-c2cc(OC[C@@H]3CNCC4(CC4)O3)c3nccnc3c2)c1 [Compound 8.1, 7-[1-(2-methoxyethyl)-1H-pyrrol-3-yl]-5-{[(5S)-4-oxa-7-azaspiro[2.5]octan-5-yl]methoxy}quinoxaline]	5.73	7.53	–
CC[C@@]1(COc2nc(-c3cnn(C(C)(C)C)c3)cc3ncccc23)CNCCO1 [Compound 10.14, 7-(1-tert-butyl-1H-pyrazol-4-yl)-5-{[(2S)-2-ethylmorpholin-2-yl]methoxy}-1,6-naphthyridine]	5.59	6.55	–
CC1(C)CNC[C@@H](COc2nc(-c3cnn(C4(C)CCC4)c3)cc3ncccc23)O1 [Compound 2.87, 5-{[(2S)-6,6-dimethylmorpholin-2-yl]methoxy}-7-[1-(1-methylcyclobutyl)-1H-pyrazol-4-yl]-1,6-naphthyridine]	5.96	7.95	–
c1cnc2cc(-c3cnn([C@@H]4CCOC4)c3)nc(OC[C@@H]3CNCCO3)c2c1 [Compound 6.45, 5-{[(2S)-morpholin-2-yl]methoxy}-7-{1-[(3R)-oxolan-3-yl]-1H-pyrazol-4-yl}-1,6-naphthyridine]	< 6.00	7.16	–
CC1(C)CNC[C@@H](COc2nc(-c3cnn(C4(C)CC4)c3)cc3ncccc23)O1 [Compound 2.88, 5-{[(2S)-6,6-dimethylmorpholin-2-yl]methoxy}-7-[1-(1-methylcyclopropyl)-1H-pyrazol-4-yl]-1,6-naphthyridine]	5.81	7.75	–
7-(1-methyl-1H-pyrrol~3-yl)-5-{[(2S)-2-methylmorpholin-2-yl]methoxy}-1,6-naphthyridine [Compound 10.7]	–	6.56	5.92
COCCn1ccc(-c2cc(OC[C@@H]3CNCCO3)c3cccnc3c2)c1 [Compound 7.9, 7-[1-(2-methoxyethyl)-1H-pyrrol-3-yl]-5-{[(2S)-morpholin-2-yl]methoxy}quinoline]	5.61	6.63	–
CC[C@@]1(COc2nc(-c3cnn(C(C)C)c3)cc3ncccc23)CNCCO1 [Compound 10.16, 5-{[(2S)-2-ethylmorpholin-2-yl]methoxy}-7-[1-(propan-2-yl)-1H-pyrazol-4-yl]-1,6-naphthyridine]	5.92	6.59	–
c1cnc2cc(-c3ccn(C4COC4)c3)cc(OC[C@@H]3CNCC4(CC4)O3)c2c1 [Compound 7.16, 5-{[(5S)-4-oxa-7-azaspiro[2.5]octan-5-yl]methoxy}-7-[1-(oxetan-3-yl)-1H-pyrrol-3-yl]quinoline]	5.77	7.70	–
CC1(C)CNC[C@@H](COc2nc(-c3cnn4c3CCCC4)cc3ncccc23)O1 [Compound 10.3, 5-{[(2S)-6,6-dimethylmorpholin-2-yl]methoxy}-7-(4H,5H,6H,7H-pyrazolo[1,5-a]pyridin-3-yl}-1,6-naphthyridine]	< 5.00	6.44	–
C[C@@H]1CNC[C@@H](COc2nc(-c3ccn(C)c3)cc3ncccc23)O1 [Compound 2.77, 7-(1-methyl-1H-pyrrol-3-yl)-5-{[(2S,6R)-6-methylmorpholin-2-yl]methoxy}-1,6-naphthyridine]	5.27	7.37	–
Cn1cccc1-c1cc2ncccc2c(OC[C@@H]2CNCCO2)n1 [Compound 2.38, 7-(1-methyl-1H-pyrrol-2-yl)-5-{[(2S)-morpholin-2-yl]methoxy}-1,6-naphthyridine]	< 5.00	5.84	–
Cn1cc(-c2cc3ncccc3c(O[C@@H]([C@@H]3CNCCO3)C(F)(F)F)n2)cn1 [Compound 10.5, 7-(1-methyl-1H-pyrazol-4-yl)-5-[(1S)-2,2,2-trifluoro-1-[(2S)-morpholin-2-yl]ethoxy]-1,6-naphthyridine]	5.48	6.10	–
CCn1ccc(-c2cc(O[C@H](C)[C@@H]3CNCCO3)c3cccnc3c2)c1 [Compound 7.18, 7-(1-ethyl-1H-pyrrol-3-yl)-5-[(1R)-1-[(2S)-morpholin-2-yl]ethoxy]quinoline]	5.76	7.27	–
Cc1cc(-c2cc(OC[C@@H]3CNCCO3)c3cccnc3c2)cs1 [Compound 3.7, 7-(5-methylthiophen-3-yl)-5-{[(2S)-morpholin-2-yl]methoxy}quinoline]	5.43	6.87	–
CC1(C)CNC[C@@H](COc2nc(-c3ccn(C4CCC4)c3)cc3ncccc23)O1 [Compound 6.14, 7-(1-cyclobutyl-1H-pyrrol-3-yl)-5-{[(2S)-6,6-dimethylmorpholin-2-yl]methoxy}-1,6-naphthyridine]	5.74	7.84	–
CC1(C)CNC[C@@H](COc2cc(-c3ccn(C(C)(C)C)c3)cc3ncccc23)O1 [Compound 3.16, 7-(1-tert-butyl-1H-pyrrol-3-yl)-5-{[(28)-6,6-dimethylmorpholin-2-yl]methoxy}quinoline]	5.21	7.92	–

Compound	pEC50 ([1]; Mus musculus, BaF3, 48 h)	pEC50 (Ba/F3-Syk cells)	pEC50 [1]
FC1(F)CC(Cn2cc(-c3cc4ncccc4c(OC[C@@H]4CNCCO4)n3)cn2)C1 [Compound 6.37]	6.25	7.22	–
CCn1ccc(-c2cc(OC[C@@H]3CNCC(C)(C)O3)c3cccnc3c2)c1 [Compound 7.17, 5-{[(2S)-6,6-dimethylmorpholin-2-yl]methoxy}-7-(1-ethyl-1H-pyrrol-3-yl)quinoline]	5.71	7.80	–
Cn1ccc(-c2cc3ncccc3c(OC[C@@H]3CNCCO3)n2)n1 [Compound 2.31, 7-(1-methyl-1H-pyrazol-3-yl)-5-{[(2S)-morpholin-2-yl]methoxy}-1,6-naphthyridine]	< 5.00	5.76	–
CC(C)n1ccc(-c2cc(OC[C@@H]3CNCC4(CC4)O3)c3cccnc3c2)c1 [Compound 7.13, 5-{[(5S)-4-oxa-7-azaspiro[2.5]octan-5-yl]methoxy}-7-[1-(propan-2-yl)-1H-pyrrol-3-yl]quinoline]	5.40	7.65	–
COCCn1ccc(-c2cc(OC[C@@H]3CNCCO3)c3nccnc3c2)c1 [Compound 8.7]	–	7.82	6.21
Cc1ccnc2cc(-c3ccn(C4COC4)c3)cc(OC[C@@H]3CNCC(C)(C)O3)c12 [Compound 14.12, 5-{[(2S)-6,6-dimethylmorpholin-2-yl]methoxy}-4-methyl-7-[1-(oxetan-3-yl)-1H-pyrrol-3-yl]quinoline]	6.06	8.26	–
CC(C)n1ccc(-c2cc(O[C@H](C)[C@@H]3CNCC(C)(C)O3)c3nccnc3c2)c1 [Compound 8.11, 5-[(1R)-1-[(2S)-6,6-dimethylmorpholin-2-yl]ethoxy]-7-[1-(propan-2-yl)-1H-pyrrol-3-yl]quinoxaline]	6.20	8.20	–
c1cnc2cc(-c3cc[nH]c3)cc(OC[C@@H]3CNCCO3)c2c1 [Compound 3.9, 5-{[(2S)-morpholin-2-yl]methoxy}-7-(1H-pyrrol-3-yl)quinoline]	< 5.00	6.78	–
CC(C)(C)n1cc(-c2cc(OC[C@@H]3CNCCO3)c3cccnc3c2)cn1 [Compound 1, 7-(1-tert-butyl-1H-pyrazol-4-yl)-5-{[(2S)-morpholin-2-yl]methoxy}quinoline]	5.33	7.35	–
CC(C)n1cc(-c2cc3ncccc3c(OC[C@@H]3CNCC4(CC4)O3)n2)cn1 [Compound 2.62, 5-{[(5S)-4-oxa-7-azaspiro[2.5]octan-5-yl]methoxy}-7-[1-(propan-2-yl)-1H-pyrazol-4-yl]-1,6-naphthyridine]	5.89	7.50	–
CC(C)(C)n1ccc(-c2cc(OC[C@@H]3CNCC4(CC4)O3)c3cccnc3c2)c1 [Compound 3.18, 7-(1-tert-butyl-1H-pyrrol-3-yl)-5-{[(5S)-4-oxa-7-azaspiro[2.5]octan-5-yl]methoxy}quinoline]	5.27	7.64	–
Cn1cc(-c2cc(OC[C@@H]3CNCC4(CCC4)O3)c3cccnc3c2)cn1 [Compound 11.7, 7-(1-methyl-1H-pyrazol-4-yl)-5-{[(6S)-5-oxa-8-azaspiro[3.5]nonan-6-yl]methoxy}quinoline]	5.97	7.33	–
FC1(F)CC(Cn2ccc(-c3cc4ncccc4c(OC[C@@H]4CNCCO4)n3)c2)C1 [Compound 6.42, 7-{1-[(3,3-difluorocyclobutyl)methyl]-1H-pyrrol-3-yl}-5-{[(2S)-morpholin-2-yl]methoxy}-1,6-naphthyridine]	6.08	7.82	–
CC1(C)CCO[C@H](COc2nc(-c3cnn(C(C)(C)C)c3)cc3ncccc23)CN1 [Compound 13.4, 7-(1-tert-butyl-1H-pyrazol-4-yl)-5-{[(2S)-5,5-dimethyl-1,4-oxazepan-2-yl]methoxy}-1,6-naphthyridine]	5.24	6.67	–
CC1(C)CNC[C@@H](COc2cc(-c3cnn(CC(F)F)c3)cc3ncccc23)O1 [Compound 3.12, 7-[1-(2,2-difluoroethyl)-1H-pyrazol-4-yl]-5-{[(2S)-6,6-dimethylmorpholin-2-yl]methoxy}quinoline]	5.77	7.06	–
CC1(C)CNC[C@@H](COc2cc(-c3cnn(C(C)(C)C)c3)cc3ncncc23)O1 [Compound 4.2, 7-(1-tert-butyl-1H-pyrazol-4-yl)-5-{[(2S)-6,6-dimethyl-morpholin-2-yl]methoxy} quinazoline]	< 5.00	6.77	–
